In patent EP0005541A2, “Substituted piperidine, morpholine or piperidone derivatives, fungicides containing these compounds, process for their preparation and their use, and the use of these compounds as fungicides” (F. HOFFMANN-LA ROCHE & CO. Aktiengesellschaft, priority 1978, dated 1979):

Tests used:
Assay type in all cases: in vivo
Erysiphe graminis = Erysiphe graminis protective spray test on barley seedlings (greenhouse); details: barley seedlings HERTA, infected 2 days after spraying, read 7 days after infection vs infected untreated control
Experimental: 30-40 Gerstenkeimlinge der Sorte HERTA (verteilt auf 2 Töpfe mit 7 cm Durchmesser) wurden jeweils im Einblattstadium mit einer wässerigen Dispersion der Testsubstanz (wie allgemein üblich aufbereitet als Spritzpulver) allseitig gründlich besprüht und anschliessend bei 22-26°C, 80% rel. Luftfeuchtigkeit und einer Photoperiode von 16 Stunden im Gewächshaus weiterkultiviert. Die Infektion erfolgte 2 Tage nach der Behandlung durch Bestäuben der Versuchspflanzen mit Kon dien von Erysiphe graminis. 7 Tage nach der Infektion wurde ::ie durch Erysiphe graminis befallene Blattfläche in % gegenüber derjenigen der infizierten, nicht behandelten Kontrolle ermittelt. Die Resultate sind in Tabelle I zusammengefasst.

Puccinia coronata = Puccinia coronata protective spray test on oat seedlings; details: oat seedlings FLAEMINGSKRONE, infected 2 days after spraying, read on day 9 after infection vs infected untreated control
Experimental: 30-40 Haferkeimlinge der Sorte FLAEMINGSKRONE (verteilt auf 2 Töpfe mit 7 cm Durchmesser) wurden jeweils im Einblattstadium mit einer wässerigen Dispersion der Testsubstanz (wie allgemein üblich aufbereitet als Spritzpulver) allseitig gründlich besprüht und anschliessend in einer Klimakabine bei 17°C. 70-80% rel. Luftfeuchtigkeit und einer Photoperiode von 16 Stunden weiterkultiviert. Nach 2 Tagen erfolgte die Infektion der Versuchspflanzen durch Besprühen mit in dest. Wasser suspendierten Uredosporen (300'000 Sporen/ml) vor. Puccinia coronata. Danach wurden die Pflanzen während 24 Stunden bei 20°C und einer Luftfeuchtigkeit von über 90W im Dunkeln inkubiert und anschliessend in ein Gewächshaus mit einer Temperatur von 22-26 °C, einer rel. Luftfeuchtigkeit von 70% und einer Photoperiode von 18 Stunden übe führt. Am 9. Tage nach der Infektion wurde die durch Pucrinia coronata befallene Blattfläche in % gegenüber der infizierten, nicht behandelten Kontrolle ermittelt. Die ResLltate sind in Tabelle I zusammengefasst.

Venturia inaequalis = Venturia inaequalis protective spray test on apple seedlings; details: infected 2 days after spraying, read on day 13 after infection vs infected untreated control
Experimental: 3 Apfelpflänzchen (verteilt auf 3 Töpfe mit 5 cm Durchmesser) aus Samen der Sorte GOLDIN DELICIOUS wurden im 4- bis 5-Blattstadium mit einer wässerigen Dispersion der Testsubstanz (wie allgemein üblich aufbereitet als Spritzpulver) allseitig gründlich besprüht. Die behandelten Pflanzen wurden anschliessend während 2 Tagen bei 17°C, 70-80%rel. Luftfeuchtigkeit und einer Photoperiode von 14 Stunden weiterkultiviert. Danach erfolgte die Infektion der Apfelsämlinge durch Besprühen mit in dest. Wasser suspendierten Konidien (200'000 Konidien/ml) von Venturia inaequalis. Nach der Infektion wurden die Pflanzen im Dunkeln während 48 Stunden bei 16-18°C und einer rel. Luftfeuchtigkeit von über 90% inkubiert und anschliessend in ein schattiertes Gewächshaus mit einer Temperatur von 22-26 °C und einer rel. Luftfeuchtigkeit von über 80% überführt. Am 13. Tage nach der Infektion erfolgte die Ermittlung der durch Venturia inaequalis befallenen Blattfläche gegenüber der infizierten, nicht behandelten Kontrolle. Die Resultate sind in Tabelle II zusammengefasst.

Row | SMILES | Wirkung (in %) Erysiphe graminis (Erysiphe graminis; 5 mg/l Spritzbrühe) [%] | Wirkung (in %) Erysiphe graminis (Erysiphe graminis; 16 mg/l Spritzbrühe) [%] | Wirkung (in %) Erysiphe graminis (Erysiphe graminis; 50 mg/l Spritzbrühe) [%] | Wirkung (in %) Erysiphe graminis (Erysiphe graminis; 160 mg/l Spritzbrühe) [%] | Wirkung (in %) Erysiphe graminis (Erysiphe graminis; 500 mg/l Spritzbrühe) [%] | Wirkung (in %) Puccinia coronata (Puccinia coronata; 5 mg/l Spritzbrühe) [%] | Wirkung (in %) Puccinia coronata (Puccinia coronata; 16 mg/l Spritzbrühe) [%] | Wirkung (in %) Puccinia coronata (Puccinia coronata; 50 mg/l Spritzbrühe) [%] | Wirkung (in %) Puccinia coronata (Puccinia coronata; 160 mg/l Spritzbrühe) [%] | Wirkung (in %) Puccinia coronata (Puccinia coronata; 500 mg/l Spritzbrühe) [%] | Wirkung (in %) Venturia inaequalis (Venturia inaequalis; 5 mg/l Spritzbrühe) [%] | Wirkung (in %) Venturia inaequalis (Venturia inaequalis; 16 mg/l Spritzbrühe) [%] | Wirkung (in %) Venturia inaequalis (Venturia inaequalis; 50 mg/l Spritzbrühe) [%] | Wirkung (in %) Venturia inaequalis (Venturia inaequalis; 160 mg/l Spritzbrühe) [%] | Wirkung (in %) Venturia inaequalis (Venturia inaequalis; 500 mg/l Spritzbrühe) [%]
1 | CC(Cc1ccc(C(C)(C)CCl)cc1)CN1CC(C)CC(C)C1 (centres unmarked) [1-/3-[p-(2-Chlor-1,1-dimethyl-äthyl)-phenyl]-2-methyl-propyl/-3,5-dimethyl-piperidin] | 85 | 92 | 100 | 100 | 100 | 40 | 98 | 100 | 100 | 100 | 20 | 33 | 77 | 87 | 99
2 | CC(Cc1ccc(C(C)(C)CCl)cc1)CN1CCCCC1 (centres unmarked) [1-/3-[p-(2-Chlor-1,1-dimethyl-äthyl)-phenyl]-2-methyl-propyl/-piperidin] | 45 | 70 | 80 | 97 | 100 | 30 | 65 | 85 | 100 | 100 | 0 | 20 | 30 | 90 | 95
3 | CCC(C)(C)c1ccc(C(C)=C(C)CN2CCC3(CC2)OCCO3)cc1 [1-[3-(p-tert.-Amyl-phenyl)-2,3-dimethyl-2-propenyl]-4,4-äthylendioxy-piperidin] | 75 | 90 | 90 | 98 | – | 20 | 98 | 100 | 100 | 100 | 0 | 0 | 10 | 10 | 95
4 | CCC(C)(C)c1ccc(CC(C)CN2CCC3(CC2)OCCO3)cc1 (centres unmarked) [1-[3-(p-tert.-Amyl-phenyl)-2-methyl-propyl]-4,4-äthylendioxy-piperidin] | 75 | 85 | 90 | 100 | 100 | 10 | 30 | 90 | 100 | 100 | 0 | 40 | 63 | 97 | 98
5 | CC(CN1CCC2(CC1)OCCO2)=C(C)c1ccc(C(C)(C)C)cc1 [1-[3-(p-tert.-Butyl-phenyl)-2,3-dimethyl-2-propenyl]-4,4-äthylendioxy-piperidin] | 80 | 98 | 98 | 100 | 100 | 98 | 100 | 100 | 100 | 100 | 0 | 0 | 20 | 37 | 83
6 | CC(CN1CCC(=O)CC1)=C(C)c1ccc(C(C)(C)C)cc1 [1-[3-(p-tert.-Butyl-phenyl)-2,3-dimethyl-2-propenyl]-4-piperidon] | 0 | 60 | 100 | 100 | 100 | 0 | 25 | 100 | 100 | 100 | 0 | 10 | 20 | 37 | 83
7 | CC(Cc1ccc(C(C)(C)C)cc1)CN1CCC2(CC1)OCCO2 (centres unmarked) [1-[3-(p-tert.-Butyl-phenyl)-2-methyl-propyl]-4,4-äthylendioxy-piperidin] | 30 | 50 | 70 | 85 | – | 90 | 95 | 100 | 100 | 100 | – | – | – | – | 20
8 | CC(Cc1ccc(C(C)(C)C)cc1)CN1CCC(=O)CC1 (centres unmarked) [1-[3-(p-tert.-Butyl-phenyl)-2-methyl-propyl]-4-piperidon] | 75 | 80 | 93 | 100 | – | 0 | 0 | 0 | 0 | 98 | 0 | 0 | 0 | 10 | 90
